Data: patent US7166579B2, “Prodrugs of DP IV-inhibitors” (Prosidion Limited, priority 1998, dated 2007)
Structures can show the parent of a compound that is named as a salt. Residues, ends and D or L forms follow the SMILES beside them.

Assays:
[1] = target: T1, human peptide transporter PepT1 (Homo sapiens, UniProt P46059); assay: Electrophysiological transport analysis, hPEPT1 expressed in oocytes; type: cell-based
T1 construct: expressed in transfected cells
T1 sequence (P46059 1-708): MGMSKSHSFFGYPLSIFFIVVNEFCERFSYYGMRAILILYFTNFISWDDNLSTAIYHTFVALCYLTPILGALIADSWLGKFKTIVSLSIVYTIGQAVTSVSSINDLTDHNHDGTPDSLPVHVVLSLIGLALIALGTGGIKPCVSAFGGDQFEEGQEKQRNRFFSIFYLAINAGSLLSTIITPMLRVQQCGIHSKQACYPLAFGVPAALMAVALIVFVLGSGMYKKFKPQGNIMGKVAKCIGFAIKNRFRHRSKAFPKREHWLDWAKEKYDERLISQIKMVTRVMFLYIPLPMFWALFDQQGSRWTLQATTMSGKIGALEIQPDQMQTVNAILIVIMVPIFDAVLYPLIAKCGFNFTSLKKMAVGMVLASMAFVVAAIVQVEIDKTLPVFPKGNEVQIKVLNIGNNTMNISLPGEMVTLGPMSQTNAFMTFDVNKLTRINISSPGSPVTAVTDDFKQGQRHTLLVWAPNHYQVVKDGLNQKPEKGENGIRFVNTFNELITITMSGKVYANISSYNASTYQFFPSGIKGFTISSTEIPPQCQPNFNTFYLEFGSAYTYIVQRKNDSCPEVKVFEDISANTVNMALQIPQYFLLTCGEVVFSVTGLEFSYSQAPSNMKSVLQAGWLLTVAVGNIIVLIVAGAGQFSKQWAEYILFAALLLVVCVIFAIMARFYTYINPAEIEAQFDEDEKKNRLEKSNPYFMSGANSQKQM

[2] = target: T1, human peptide transporter PepT1; assay: Affinity to PepT1 by displacement of radioactively labeled D-Phe-Ala; conditions: read-out: Binding constant, mM, to PepT1, relative to D-Phe-Ala
[3] = Blood glucose after oral glucose stimulation and oral administration (glucose tolerance); type: in vivo; conditions: Wistar rats; within 100 minutes of p.o. glucose stimulation; p.o. dose 2.5 um active substance/300 g of animal; control = 100
human blood-DP IV = target: T2, human blood-DP IV (Homo sapiens, UniProt P27487); assay: Inhibition of DP IV in human whole blood by release of Ile-Thia from prodrugs; conditions: same concentration of prodrug, compared with Pro-Ile-Thia and Gly-Pro-Ile-Thia
T2 construct: from tissue; host or cells: human whole blood
Description: Release of the masked DP IV-inhibitor in the blood can be carried out, in the case of the examples selected, by DP IV itself (Pro-Pro-Ile-Thia=PPIThia, Gly-Pro-Ile-Thia=GPIThia) or by aminopeptidases (pGlu-Ile-Thia=pEIThia, Pro-Ile-Thia=PIThia) (FIG. 1).

T2 sequence (P27487 whole entry): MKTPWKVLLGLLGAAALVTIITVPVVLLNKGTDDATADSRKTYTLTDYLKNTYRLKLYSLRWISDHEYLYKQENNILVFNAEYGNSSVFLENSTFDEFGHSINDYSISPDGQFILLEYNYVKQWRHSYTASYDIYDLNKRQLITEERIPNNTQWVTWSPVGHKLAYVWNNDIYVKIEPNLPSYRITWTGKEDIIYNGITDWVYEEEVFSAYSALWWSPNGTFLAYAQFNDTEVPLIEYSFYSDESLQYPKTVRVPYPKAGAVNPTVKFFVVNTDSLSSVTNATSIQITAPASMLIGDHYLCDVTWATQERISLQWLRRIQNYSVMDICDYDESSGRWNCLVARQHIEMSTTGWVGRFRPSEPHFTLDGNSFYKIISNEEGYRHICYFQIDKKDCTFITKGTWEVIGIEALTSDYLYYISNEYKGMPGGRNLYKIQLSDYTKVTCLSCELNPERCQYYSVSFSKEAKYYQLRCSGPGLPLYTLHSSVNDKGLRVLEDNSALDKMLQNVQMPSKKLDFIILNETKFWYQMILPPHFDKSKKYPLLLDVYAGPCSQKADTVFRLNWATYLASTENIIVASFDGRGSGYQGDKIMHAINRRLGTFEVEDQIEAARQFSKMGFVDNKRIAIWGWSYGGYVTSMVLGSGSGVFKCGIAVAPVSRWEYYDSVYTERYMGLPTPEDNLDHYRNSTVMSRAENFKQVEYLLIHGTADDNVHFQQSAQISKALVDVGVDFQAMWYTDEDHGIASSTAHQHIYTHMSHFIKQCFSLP

Row | Compound | Electrophys. transport analysis (hPEPT1 expr. in oocytes), flux % based on the Gly-Gln control (100%) [1] | Ki [2] | also measured
1 | CCC(C)C(N)C(=O)N1CCSC1 (stereo not shown) [Ile-Thia, isoleucyl thiazolidide] | 25% | 0.98 mM | % glucose level [3]: 74.4%
2 | Pro-Pro-Ile-Thia | – | – | Release of the DP IV-inhibitor isoleucyl thiazolidide from the prodrug in the blood (time course of DP IV inhibition) (human blood-DP IV): more marked delay in the release of active substance
3 | H-Pro-Ile-Thia/HC1 | – | – | % glucose level [3]: 56.1%
4 | NCCCCC(N)C(=O)NC(Cc1ccccc1)C(=O)O (stereo not shown) [Lys-phe] | 95% | 0.08 mM | –
5 | NC(Cc1c[nH]cn1)C(=O)N1CCCC1 (stereo not shown) [His-Pyr] | 7% | 5.34 mM | –
6 | NC(=O)CC(N)C(=O)N1CCSC1 (stereo not shown) [Asn-Thia] | 83% | 0.5 mM | –
7 | NC(=O)CC(N)C(=O)N1CCCC1 (stereo not shown) [Asn-Pyr] | 30% | 3.01 mM | –
8 | H-Gly-Pro-Ile-Thia/HC1 | – | – | % glucose level [3]: 57.1%
9 | pGlu-Ile-Thia | – | – | Release of the DP IV-inhibitor isoleucyl thiazolidide from the prodrug in the blood (time course of DP IV inhibition) (human blood-DP IV): more marked delay in the release of active substance
10 | CCC(C)C(N)C(=O)N1CCCC1 (stereo not shown) [Ile-Pyr] | 14% | 2.66 mM | –
11 | CC[C@H](C)[C@H](N)C(=O)N1CCC[C@H]1C(=O)N[C@H](C(=O)N1CCSC1)[C@@H](C)CC [Ile-Pro-Ile-Thia] | 44% | 0.61 mM | –
12 | CC[C@H](C)[C@H](N)C(=O)N1CCC[C@H]1C(=O)N[C@H](C(=O)N1CCSC1)[C@@H](C)CC (as salt: HCl) [Ile-Pro-Ile-Thia] | – | – | melting point: 98 to 107 °C
13 | NCCCCC(N)C(=O)NC(Cc1ccccc1)C(=O)N1CCCC1C(=O)O (stereo not drawn) [Lys-Phe-Pro] (H-Lys-Phe-Pro-OH; configuration not given here) | 10% | 0.19 mM | –
